# Laboratory results published in PubChem BioAssay AID1919008 (Molecular Pharmacology Branch, DTP, NCI, 2023).
# Tested on: DMS-114 complex spheroids with HUVEC/MSC, growth % test/control
# Assay: Anticancer human tumor DMS-114 cell line growth inhibition [AhR];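 note: spheroids exposed to agents for 7 days before readout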;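 for viability, T/C: 100% = DMSO vehicle control wells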
# Conditions: for IC50: curve of first compound; for viability, T/C: stronger effect = lower value
# Method in brief: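 Spheroids combined tumor cells with HUVEC endothelial cells and human MSCs as stroma. AhR antagonists were paired with standard or investigational drugs, each dosed in half-log steps down from near clinical Cmax, or from 10 microM where Cmax was unknown.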
# [1] = second compound 0.1 µM, first compound 0.0316 µM
# [2] = second compound 0.1 µM, first compound 0.1 µM
# [3] = second compound 0.1 µM, first compound 0.316 µM
# [4] = second compound 0.1 µM, first compound 1 µM
# [5] = second compound 0.1 µM, first compound 3.16 µM
# [6] = second compound 0.1 µM, first compound 10 µM
# [7] = second compound 0.316 µM, first compound 0.0316 µM
# [8] = second compound 0.316 µM, first compound 0.1 µM
# [9] = second compound 0.316 µM, first compound 0.316 µM
# [10] = second compound 0.316 µM, first compound 1 µM
# [11] = second compound 0.316 µM, first compound 3.16 µM
# [12] = second compound 0.316 µM, first compound 10 µM
# [13] = second compound 1 µM, first compound 0.0316 µM
# [14] = second compound 1 µM, first compound 0.1 µM
# [15] = second compound 1 µM, first compound 0.316 µM
# [16] = second compound 1 µM, first compound 1 µM
# [17] = second compound 1 µM, first compound 3.16 µM
# [18] = second compound 1 µM, first compound 10 µM
# [19] = second compound 3.16 µM, first compound 0.0316 µM
# [20] = second compound 3.16 µM, first compound 0.1 µM
# [21] = second compound 3.16 µM, first compound 0.316 µM
# [22] = second compound 3.16 µM, first compound 1 µM
# [23] = second compound 3.16 µM, first compound 3.16 µM
# [24] = second compound 3.16 µM, first compound 10 µM
# [25] = second compound 10 µM, first compound 0.0316 µM
# [26] = second compound 10 µM, first compound 0.1 µM
# [27] = second compound 10 µM, first compound 0.316 µM
# [28] = second compound 10 µM, first compound 1 µM
# [29] = second compound 10 µM, first compound 3.16 µM
# [30] = second compound 10 µM, first compound 10 µM
smiles,measurement,setting,value
CC(C)CC(NC(=O)C(Cc1ccccc1)NC(=O)c1cnccn1)B(O)O (stereo not given) + Cc1ccccc1N=Nc1ccc(NC(=O)c2ccnn2C)c(C)c1,IC50,second compound 0.1 µM,5.5 nM
same,IC50,second compound 0.316 µM,6.01 nM
same,IC50,second compound 1 µM,5.87 nM
same,IC50,second compound 3.16 µM,6.14 nM
same,IC50,second compound 10 µM,5.59 nM
same,"viability, T/C","second compound 0.1 µM, first compound 0.000949 µM",90.3%
same,"viability, T/C","second compound 0.1 µM, first compound 0.003 µM",93.9%
same,"viability, T/C","second compound 0.1 µM, first compound 0.00949 µM",12.1%
same,"viability, T/C","second compound 0.1 µM, first compound 0.03 µM",0.2%
same,"viability, T/C","second compound 0.1 µM, first compound 0.0949 µM",0.1%
same,"viability, T/C","second compound 0.1 µM, first compound 0.3 µM",0.22%
same,"viability, T/C","second compound 0.316 µM, first compound 0.000949 µM",101%
same,"viability, T/C","second compound 0.316 µM, first compound 0.003 µM",99.9%
same,"viability, T/C","second compound 0.316 µM, first compound 0.00949 µM",17.2%
same,"viability, T/C","second compound 0.316 µM, first compound 0.03 µM",0.18%
same,"viability, T/C","second compound 0.316 µM, first compound 0.0949 µM",0.05%
same,"viability, T/C","second compound 0.316 µM, first compound 0.3 µM",0.48%
same,"viability, T/C","second compound 1 µM, first compound 0.000949 µM",94.7%
same,"viability, T/C","second compound 1 µM, first compound 0.003 µM",94.6%
same,"viability, T/C","second compound 1 µM, first compound 0.00949 µM",18.1%
same,"viability, T/C","second compound 1 µM, first compound 0.03 µM",0.41%
same,"viability, T/C","second compound 1 µM, first compound 0.0949 µM",0.28%
same,"viability, T/C","second compound 1 µM, first compound 0.3 µM",0.18%
same,"viability, T/C","second compound 3.16 µM, first compound 0.000949 µM",89.9%
same,"viability, T/C","second compound 3.16 µM, first compound 0.003 µM",97.8%
same,"viability, T/C","second compound 3.16 µM, first compound 0.00949 µM",23.4%
same,"viability, T/C","second compound 3.16 µM, first compound 0.03 µM",0.28%
same,"viability, T/C","second compound 3.16 µM, first compound 0.0949 µM",1.08%
same,"viability, T/C","second compound 3.16 µM, first compound 0.3 µM",0.24%
same,"viability, T/C","second compound 10 µM, first compound 0.000949 µM",94.3%
same,"viability, T/C","second compound 10 µM, first compound 0.003 µM",88.7%
same,"viability, T/C","second compound 10 µM, first compound 0.00949 µM",17.1%
same,"viability, T/C","second compound 10 µM, first compound 0.03 µM",0.65%
same,"viability, T/C","second compound 10 µM, first compound 0.0949 µM",0.6%
same,"viability, T/C","second compound 10 µM, first compound 0.3 µM",0.32%
Nc1ccccc1NC(=O)c1ccc(CNC(=O)OCc2cccnc2)cc1 + Cc1ccccc1N=Nc1ccc(NC(=O)c2ccnn2C)c(C)c1,IC50,second compound 0.1 µM,2220 nM
same,IC50,second compound 0.316 µM,2410 nM
same,IC50,second compound 1 µM,2340 nM
same,IC50,second compound 3.16 µM,2460 nM
same,IC50,second compound 10 µM,2410 nM
same,"viability, T/C",[1],91.5%
same,"viability, T/C",[2],102%
same,"viability, T/C",[3],91.5%
same,"viability, T/C",[4],72.9%
same,"viability, T/C",[5],40.1%
same,"viability, T/C",[6],23.3%
same,"viability, T/C",[7],95.7%
same,"viability, T/C",[8],102%
same,"viability, T/C",[9],94.8%
same,"viability, T/C",[10],72.5%
same,"viability, T/C",[11],43.7%
same,"viability, T/C",[12],23.1%
same,"viability, T/C",[13],91.8%
same,"viability, T/C",[14],95.9%
same,"viability, T/C",[15],90%
same,"viability, T/C",[16],73.4%
same,"viability, T/C",[17],41.8%
same,"viability, T/C",[18],25.1%
same,"viability, T/C",[19],98.6%
same,"viability, T/C",[20],88.7%
same,"viability, T/C",[21],84.5%
same,"viability, T/C",[22],68.8%
same,"viability, T/C",[23],43.9%
same,"viability, T/C",[24],23.5%
same,"viability, T/C",[25],91.6%
same,"viability, T/C",[26],87.3%
same,"viability, T/C",[27],85.5%
same,"viability, T/C",[28],72.8%
same,"viability, T/C",[29],42.9%
same,"viability, T/C",[30],26.1%
O=C(C=Cc1cccc(S(=O)(=O)Nc2ccccc2)c1)NO + Cc1ccccc1N=Nc1ccc(NC(=O)c2ccnn2C)c(C)c1,IC50,second compound 0.1 µM,1850 nM
same,IC50,second compound 0.316 µM,1720 nM
same,IC50,second compound 1 µM,1750 nM
same,IC50,second compound 3.16 µM,1660 nM
same,IC50,second compound 10 µM,1670 nM
same,"viability, T/C",[1],101%
same,"viability, T/C",[2],101%
same,"viability, T/C",[3],96.1%
same,"viability, T/C",[4],74.5%
same,"viability, T/C",[5],27.4%
same,"viability, T/C",[6],30.3%
same,"viability, T/C",[7],96.6%
same,"viability, T/C",[8],95.2%
same,"viability, T/C",[9],101%
same,"viability, T/C",[10],68.8%
same,"viability, T/C",[11],30.1%
same,"viability, T/C",[12],27.4%
same,"viability, T/C",[13],99%
same,"viability, T/C",[14],102%
same,"viability, T/C",[15],94.7%
same,"viability, T/C",[16],71.1%
same,"viability, T/C",[17],26.4%
same,"viability, T/C",[18],29.1%
same,"viability, T/C",[19],101%
same,"viability, T/C",[20],97.5%
same,"viability, T/C",[21],91.2%
same,"viability, T/C",[22],66%
same,"viability, T/C",[23],28.7%
same,"viability, T/C",[24],28.7%
same,"viability, T/C",[25],88.7%
same,"viability, T/C",[26],96.1%
same,"viability, T/C",[27],86.5%
same,"viability, T/C",[28],65.8%
same,"viability, T/C",[29],29.5%
same,"viability, T/C",[30],29.9%
O=C(c1cc(Cc2n[nH]c(=O)c3ccccc23)ccc1F)N1CCN(C(=O)C2CC2)CC1 + Cc1ccccc1N=Nc1ccc(NC(=O)c2ccnn2C)c(C)c1,IC50,second compound 0.1 µM,> 10000 nM
same,IC50,second compound 0.316 µM,> 10000 nM
same,IC50,second compound 1 µM,> 10000 nM
same,IC50,second compound 3.16 µM,> 10000 nM
same,IC50,second compound 10 µM,> 10000 nM
same,"viability, T/C",[1],109%
same,"viability, T/C",[2],107%
same,"viability, T/C",[3],103%
same,"viability, T/C",[4],111%
same,"viability, T/C",[5],110%
same,"viability, T/C",[6],97.5%
same,"viability, T/C",[7],122%
same,"viability, T/C",[8],109%
same,"viability, T/C",[9],112%
same,"viability, T/C",[10],105%
same,"viability, T/C",[11],97.9%
same,"viability, T/C",[12],94.7%
same,"viability, T/C",[13],113%
same,"viability, T/C",[14],95.8%
same,"viability, T/C",[15],111%
same,"viability, T/C",[16],105%
same,"viability, T/C",[17],102%
same,"viability, T/C",[18],105%
same,"viability, T/C",[19],105%
same,"viability, T/C",[20],111%
same,"viability, T/C",[21],94.7%
same,"viability, T/C",[22],102%
same,"viability, T/C",[23],94.2%
same,"viability, T/C",[24],103%
same,"viability, T/C",[25],87.2%
same,"viability, T/C",[26],103%
same,"viability, T/C",[27],87.2%
same,"viability, T/C",[28],91.2%
same,"viability, T/C",[29],88.3%
same,"viability, T/C",[30],81%
